Data published in patent US5677439A, “Oligonucleotide analogues containing phosphate diester linkage substitutes, compositions thereof, and precursor dinucleotide analogues” (Sanofi, priority 1995, dated 1997).
Entries after “also recorded” stand apart in the source; their conditions may differ.

What was measured:
[1] = system: c-myc protein in MOLT-4 human T-cell leukemia cells; experiment: C-MYC protein expression in MOLT-4 cells (35S-methionine, radioimmunoprecipitation); assay type: cell-based; conditions: 60 μM, 8 hours incubation
Description: Asynchronous exponentially growing Molt-4 cells were incubated for 8 hours in the presence or absence of 60 μM c-myc directed antisense DNA. The cells were then incubated for 45 minutes in the presence of ^35 S-methionine and the content of c-myc protein guantitated using radioimmunoprecipitation with a c-myc antibody.

[2] = system: PHA stimulated human PBL; experiment: Progression of PHA stimulated PBL into the S-phase of the cell cycle (flow cytometry); assay type: cell-based; conditions: PHA stimulation 48 hours, versus nontreated control
Description: Human PBL's were stimulated with PHA for 48 hours in the presence or absence of the antisense oligonucleotide sequences of Table 6. The percent of the population of cells in each treatment group in the S-phase of the cell cycle as compared to the nontreated control was determined using standard flow cytometric techniques.

[3] = system: fetal calf serum-associated exonuclease; experiment: Nuclease resistance: 2 h incubation in cell culture medium with 10% fetal calf serum, HPLC of parent compound; assay type: in vitro ADME; conditions: for % DEGRADATION MAJOR PEAK: 2 hours at 37° C., 6 or 7 μM, RPMI 1640 medium with 10% heat inactivated FCS; for % of oligomer remained after incubation: 2 hrs incubation with fetal calf serum-associated exonuclease; for AREA-MAJOR PEAK/2.0 HR: HPLC peak area of parent compound after 2.0 hr at 37° C. in RPMI 1640 with 10% FCS; for AREA-MAJOR PEAK/0.0 MIN: HPLC peak area of parent compound, 260 nm; for degradation / resistance to hydrolysis by FCS-associated exonucleases (in words): 2 hrs incubation, 10% FCS
Description: The oligonucleotides of Table 4 were dissolved in water. DNA concentrations were then determined by measuring the absorbance of samples at 260 nm (on a Perkin Elmer Lambda 4C Spectrophotometer at ambient room temperature) and using calculated extinction coefficients [method of Cantor and Warsaw, CRC Handbook of Biochemistry and Molecular Biology, 3rd. ed.
The FCS was heat inactivated at 56° C. for 0.5 hour prior to use. Samples were then placed on ice and deproteinized using five extractions with 24:1 chloroform:isoamyl alcohol. Samples were either stored frozen at -20° C. or immediately loaded onto a refrigerated (4° C.) WISP (Waters) HPLC autoinjector.
Oligonucleotide hydrolysis was guantitated by determining the amount of disappearance of the parent compound. Oligonucleotides (from the reaction mixture) were separated on an LKB Ultrachrome GTi dual pump chromatography system equipped with a fixed wavelength detector (260 nm), and recording integrator, using a GenPak FAX (Waters) anion exchange column eguilibrated in Buffer A (1 mM EDTA; 15 mM sodium phosphate, pH 8.5). Column temperature was maintained at 60° C. using a Waters column oven. Fifty microliter sample injection volumes were used. The oligonucleotides were eluted using a linear gradient of 0% to 100% Buffer B (Buffer A containing 0.5M NaCl) over 60 minutes. Buffer flow rate was 1 mL/min.

Row | Substance | % REDUCTION C-MYC PROTEIN [1] | % CONTROL S-PHASE ([2]; 30 μM) | % CONTROL S-PHASE ([2]; 60 μM) | % DEGRADATION MAJOR PEAK [3] | % of oligomer remained after incubation [3] | AREA-MAJOR PEAK/2.0 HR [3] | AREA-MAJOR PEAK/0.0 MIN [3] | degradation / resistance to hydrolysis by FCS-associated exonucleases (in words) [3]
1 | 5' AAC GTT GAG GGG CAT 3' [reference compound] | 61.0 ± 2.6% | 75 ± 6% | 9 ± 10% |  |  |  |  | 
2 | 5' X CCT CGA CCA CCG CAT X (A) 3' (antisense CCTCGACCACCGCAT; triethylene glycol unit at both ends, extra 3' A, further chemistry not given here) [Ref. Code 9, TEG-terminated anti-RAS oncogene DNA, X is TEG] |  |  |  | 13.0% | 87.0% | 0.3258 | 0.3744 | 
3 | 5' XX CCT CGA CCA CCG CAT XX (A) 3' (antisense CCTCGACCACCGCAT; two TEG at each end, 3' A, chemistry not fully specified) [Ref. Code 10, TEG-terminated anti-RAS oncogene DNA, X is TEG] |  |  |  | 0.0% |  | 0.3697 | 0.3642 | no degradation; also recorded: completely resistant to hydrolysis
4 | 5' CCT CGA CCA CCG CAT 3' (DNA CCTCGACCACCGCAT; DNA, backbone and methylation of C not given here) [Ref. Code 11, unmodified oligodeoxynucleotide made by standard solid phase phosphoramidite procedures, comparison, reference compound] |  |  |  | 75.3% | 24.7% | 0.3177 | 1.2861 | 
5 | 5' XX GGA GCT GGT GGC GTA XX (A) 3' (antisense GGAGCTGGTGGCGTA; two triethylene glycol units at each end, extra 3' A, further chemistry not given here) [Ref. Code 8, TEG-terminated anti-RAS oncogene DNA, X is TEG] |  |  |  | 17.9% | 82.1% | 0.1777 | 0.2164 | 
6 | 5' X GGA GCT GGT GGC GTA X (A) 3' (antisense GGAGCTGGTGGCGTA; triethylene glycol unit at both ends, extra 3' A, further chemistry not given here) [Ref. Code 7, TEG-terminated anti-RAS oncogene DNA, X is TEG] |  |  |  | 0.0% |  | 0.3663 | 0.2325 | no degradation; also recorded: completely resistant to hydrolysis
